For experiment [1], the system named is H37Rv Mycobacterium tuberculosis. As to the kind of experiment: Antimicrobial susceptibility testing. It counts as cell-based. Particulars: for bactericidal activity: H37Rv Mtb.
The subject of another experiment is Mtb. Particulars: cited from earlier work.
A further experiment concerns the target Mtb fumarase (Mycobacterium tuberculosis, UniProt P9WN93). Kind of experiment: Biochemical assay of Mtb fumarase enzymatic activity. Particulars: for Inhibition (%) at 50 μM: 50 μM ligand concentration.

Mtb fumarase, sequence (P9WN93 whole entry): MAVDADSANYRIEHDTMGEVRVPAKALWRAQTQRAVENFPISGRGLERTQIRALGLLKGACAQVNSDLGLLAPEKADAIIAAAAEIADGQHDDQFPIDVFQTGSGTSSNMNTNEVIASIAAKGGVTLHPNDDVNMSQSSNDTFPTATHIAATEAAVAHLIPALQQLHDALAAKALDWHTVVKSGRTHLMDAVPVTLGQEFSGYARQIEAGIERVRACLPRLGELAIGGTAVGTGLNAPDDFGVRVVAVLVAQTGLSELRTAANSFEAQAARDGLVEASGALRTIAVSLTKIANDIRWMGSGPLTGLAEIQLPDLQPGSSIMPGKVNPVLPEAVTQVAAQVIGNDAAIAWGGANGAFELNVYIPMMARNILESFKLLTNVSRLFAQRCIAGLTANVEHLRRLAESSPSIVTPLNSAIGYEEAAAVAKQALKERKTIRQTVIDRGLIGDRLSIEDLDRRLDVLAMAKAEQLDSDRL

As for `COc1ccc(S(=O)(=O)N2CCCCCC2)cc1NC(=O)Cc1nnc(O)c2ccccc12` [Compound 1, N-(5-(Azepan-1-ylsulfonyl)-2-methoxyphenyl)-2-(4-oxo-3,4-dihydrophthalazin-1-yl)acetamide], the bactericidal activity result in experiment [1] is given as “no bactericidal activity”. The bactericidal properties entry in the experiment with Mtb is on record as “did not exhibit bactericidal properties”.

Take `COc1ccc(S(=O)(=O)N2CCCCCC2)cc1NC(=O)Cc1coc2ccccc12` [Compound 15d, N-(5-(Azepan-1-ylsulfonyl)-2-methoxyphenyl)-2-(benzofuran-3-yl)acetamide]: the “Inhibition (%) at 50 μM” value at Mtb fumarase was “failed to provide inhibition”. `COc1ccc(S(=O)(=O)N2CCCCCC2)cc1NC(=O)Cc1noc2ccccc12` [Compound 15e, N-(5-(Azepan-1-ylsulfonyl)-2-methoxyphenyl)-2-(benzo[d]isoxazol-3-yl)acetamide]: the “Inhibition (%) at 50 μM” value at Mtb fumarase is given as “failed to provide inhibition”.

In the case of `COc1ccc(S(=O)(=O)N2CCCCCC2)cc1NC(=O)Cn1cnc2ccccc21` [Compound 15f, N-(5-(Azepan-1-ylsulfonyl)-2-methoxyphenyl)-2-(1H-benzo[d]imidazol-1-yl)acetamide], on Mtb fumarase, the “Inhibition (%) at 50 μM” value is “failed to provide inhibition”. On to `COc1ccc(S(=O)(=O)N2CCCCCC2)cc1NC(=O)Cc1ccncc1` [Compound 15i, N-(5-(Azepan-1-ylsulfonyl)-2-methoxyphenyl)-2-(pyridin-4-yl)acetamide], for which, at Mtb fumarase, the “Inhibition (%) at 50 μM” value is “eliminated inhibitory activity”. Take `COc1ccc(S(=O)(=O)N2CCCCCCC2)cc1NC(=O)Cc1n[nH]c(=O)c2ccccc12` [Compound 16b, N-(5-(Azocan-1-ylsulfonyl)-2-methoxyphenyl)-2-(4-oxo-3,4-dihydrophthalazin-1-yl)acetamide]: in experiment [1] (7H9/DPPC medium), the “H37Rv Mtb MIC” value is given as “highly active”. Also, the bactericidal activity entry in experiment [1] was “activity was observed”. For `COc1ccc(S(=O)(=O)N2CCc3ccccc3CC2)cc1NC(=O)Cc1n[nH]c(=O)c2ccccc12` [Compound 16l, N-(2-Methoxy-5-((1,2,4,5-tetrahydro-3H-benzo[d]azepin-3-yl)sulfonyl)phenyl)-2-(4-oxo-3,4-dihydrophthalazin-1-yl)acetamide], at Mtb fumarase (relative to 1 (IC50 2.0 μM)), the “IC50 fold lower than that of 1” value was found to be 3 fold.

The values are drawn from PMC10478077 (Journal of medicinal chemistry, 2019).
